# Like-named read-outs stand apart in the source and are kept apart here.
# Key:
# HCV-NS5A protein = assay: HCV protein expression-suppressing activity by Western blotting in LuHCV cells; type: cell-based, hepatitis C virus (HCV); conditions: 20 μM, 14 hours and 60 hours
# Procedure: LuHCV cells were plated onto 10-cm dishes at 1×10^6 cells/dish and then incubated overnight or longer. Subsequently, Compound 5 dissolved in DMSO was added at a final concentration of 20 μM. Cells were further gently cultured under culture conditions of 37° C. and 5% CO2. DMSO alone was added to a control dish. At 14 hours and 60 hours after addition of Compound 5, cells were collected. Cells were lysed using a cell lysis solution (25 mM NaPO4 (pH 7.5), 150 mM NaCl, 1% Triton X-100, 1 mM EDTA, 20% glycerol, and protease inhibitor cocktail (Roche Diagnostics)), so that cell extracts were obtained. With the use of the thus obtained cell extracts (10 μg each), expression analysis was performed by Western blotting for an HCV-NS5A protein (an antibody was purchased from Virogen) and β-actin (an antibody was purchased from Sigma).
# HCV RNA (NS5A) = assay: Effects on replication and stability of HCV RNA (RT-PCR) in LuHCV cells; type: cell-based, hepatitis C virus (HCV); conditions: 20 μM, 14 hours and 60 hours
# Procedure: LuHCV cells were plated onto 10-cm dishes at 1×10^6 cells/dish and then incubated overnight or longer. Subsequently, Compound 5 dissolved in DMSO was added at a final concentration of 20 μM. Cells were further gently cultured under culture conditions of 37° C. and 5% CO2. DMSO alone was added to a control dish. At 14 hours and 60 hours after addition of Compound 5, cells were collected and then total RNA was extracted using Sepasol-RNA (NACALAI TESQUE, INC.). cDNA was synthesized using SuperScript II reverse transcriptase (Invitrogen) and oligo-dTprimer (Promega) or random primers (Invitrogen Corporation). PCR was performed using the thus synthesized cDNA as a template, NS5A-specific primers (5′-[…]-3′ (SEQ ID NO: 1) and 5′-[…]-3′ (SEQ ID NO: 2)), GAPDH primers (5′-[…]-3′ (SEQ ID NO: 3) and 5′-[…]-3′ (SEQ ID NO: 4)), and PrimeSTAR HS DNA polymerase (Takara Bio Inc.). After DNA amplification reaction, agarose gel electrophoresis and ethidium bromide staining were performed. The expression level of each gene was evaluated using a UV transilluminator.
# LuHCV cells = assay: Effects on the growth of LuHCV cells (hemocytometer count); type: cell-based, human; conditions: 20 μM, 0, 6, 12, 24, 36 and 48 hours
# Procedure: LuHCV cells were plated onto a 6-well plate at 5×10^4 cells/1 mL/well and then incubated overnight. […] The final concentration of Compound 5 was 20 μM. […] After addition of Compound 5, cells were collected from 3 wells at 0, 6, 12, 24, 36, and 48 hours later, the number of viable cells per well was measured using a hemocytometer, and then the average value was calculated. Wells to which only DMSO had been added were used as control wells.
# [1] = Toxicity test by repeated in vivo administration; parameters: species or system mice (Cr1j/CD1 (ICR) mice, male); conditions: oral
# Procedure: A conditioning period of one week (day-7 to day-1) was provided for mice (Cr1j/CD1 (ICR) mice, male, 5-week-old), and then the mice were grouped based on the mean body weight on the day before the initiation of the test. Also, the dose of Compound 5 was calculated based on the mean body weight (day-1). There were 2 groups to which Compound 5 was administered: a placebo-administered group (n=6) to which a placebo was administered and a Compound 5-administered group (n=6) to which Compound 5 was administered. On the days of administration (day 00 to day 07), the test compound formulated using 0.5% carboxymethyl cellulose was administered via oral administration for 7 days in a row. Symptoms were observed during the administration period.
# During the test period, the body weight of each mouse was weighed on day −7, day −3, day −1, day 4, and day 7.
# [2] = tested on: intracellular HCV protein (NS3-NS4-NS5A-NS5B); assay: HCV viral protein expression assay using LuHCV cells (luciferase activity); conditions: 48 hours, LuHCV cells
# Procedure: As an HCV viral protein expression assay, screening was performed for compounds having anti-HCV activity using human hepatocytes with which the replication and expression of the intracellular HCV protein (NS3-NS4-NS5A-NS5B) can be evaluated through determination of luciferase activity (hereinafter, referred to as LuHCV).
# LuHCV cells were plated onto 96-well plates at 5×10^3 cells/50 μL/well and then incubated overnight. Test compounds were each dissolved in dimethyl sulfoxide (DMSO) and dilution series were prepared using DMSO, if necessary. On the next day of plating of LuHCV cells, a medium containing a test compound with a concentration twice the final test concentration was added at 50 μL/well. Cells were gently cultured under culture conditions of 48 hours, 37° C., and 5% CO2 (the final concentrations of the test compounds: 0, 10, and 20 μM). At this time, analysis was made using 3 test wells for each test compound and for each concentration.
# Culture medium was removed after 48 hours. Glo lysis buffer (100 μL) (Promega) was added to each well and then cells were disrupted, so that a cell extract was obtained. With the use of 50 μL of the thus obtained cell extract, 50 μL of a Bright-Glo™ Luciferase Assay System (Promega) reagent was added. Luciferase activity in the extract was determined by measuring luminescence intensity for one second using a measuring device ARVO (PerkinElmer Co., Ltd.).
# Based on the thus obtained numerical values of luminescence intensity, an average value for each test compound at each concentration was calculated. The luminescence intensity percentage for each test compound was calculated based on a luminescence intensity for DMSO (used as a control for test substances) as 100%.
# Culture medium was removed after 48 hours. Glo Lysis buffer (100 μL) (Promega) was added to each well and then cells were disrupted, so that a cell extract was obtained. With the use of 50 μL of the thus obtained cell extract, 50 μL of a Bright-Glo™ Luciferase Assay System (Promega) reagent was added. Luciferase activity in the extract was determined by measuring luminescence intensity for one second using a measuring device ARVO (PerkinElmer Co., Ltd.).
# Based on the thus obtained numerical values of luminescence intensity, an average value for each test compound at each concentration was calculated. The luminescence intensity percentage for each test compound was calculated based on a luminescence intensity of DMSO (used as a control for test substances) as 100%.
compound,measurement,setting,value
"O=C(NC(=S)Nc1cc(C(F)(F)F)ccc1N1CCCCCCC1)c1cccnc1 [Compound 5, N-nicotinoyl-N′-[2-(azacyclooctan-1-yl)-5-(trifluoromethyl)phenyl]thiourea]",expression level of NS5A (Western blotting),HCV-NS5A protein,a decrease in the expression level of NS5A was observed
same,expression level of β-actin (Western blotting),HCV-NS5A protein,no change was observed
same,amount of NS5A and GAPDH RNA (RT-PCR),HCV RNA (NS5A),no quantitative change was observed
same,number of viable cells at each time point versus DMSO control,LuHCV cells,Almost no differences were observed
same,dead mice during the administration period,"[1]; 1000 mg/kg/day, 7 days",no dead mice were observed
same,level at which no adverse effect is observed,"[1]; 7 days repeated administration, mice",≥ 1000 mg/kg
same,viability (% control),influenza virus; 5 µM,41.8 ± 2.2 % control
same,viability (% control),influenza virus; 10 µM,63.1 ± 0.9 % control
same,cell death due to influenza virus infection (result in words),"influenza virus; 5 and 10 μM, 48 hours, MDCK cells",cell death was decreased
same,luciferase activity (result in words),"[2]; 0, 10 and 20 μM",Decreases in luciferase activity
same,decrease in luminescence intensity compared with the control,[2]; 10 μM,about 50%
